One series concerns SK-BR-3. In words: In vitro anti-tumor activity of molecular glue compounds, CellTiter-Lumi cell viability assay. The series is classed as cell-based. As to conditions: Homo sapiens, SK-BR-3 cells. On the procedure:
(§1) Different tumor cells were all commercially available and used for evaluating the anti-tumor inhibitory activity of the compounds of the present disclosure. Various tumor cells were cultured until the cell confluency reached 80%-90%, with cell viability above 90% as determined by trypan blue exclusion. Then, the cells were plated. Specifically, after cell density optimization, 100 µL of each of the cell suspensions of HL-60 and SK-BR-3 cells (cell density: 3000 cells/well), Romas cells (cell density: 6000 cells/well), NCI-H929 cells (cell density: 4000 cells/well), and NCI-H82 cells (cell density: 5000 cells/well) was plated in a BeyoGold™ ultra-low attachment black clear-bottom 96-well plate (Cat. No.: FULA965-24pcs), and the plate was incubated overnight. The next day, after the adherent cells were adhered to the wall and suspension cells requiring aggregation were aggregated, 50 µL of culture medium was aspirated from each well of the 96-well plate. Then, the compounds diluted with the corresponding culture media were added. Specifically, the compounds were serially diluted at a 5-fold gradient starting from the highest concentration of 1 µM, with a final DMSO concentration of 1%o, and the test compounds were then added to the cell culture plate. The plate was incubated in an incubator at 37 °C with 5% carbon dioxide for 96 h. Before measurement, the CellTiter-Lumi™ luminescent cell viability assay reagent was equilibrated to room temperature in the dark. Then, 50 µL of the CellTiter-Lumi™ (Cat. No.: C0065XL) cell viability assay reagent was added to each well of the 96-well plate. The plate was shaken in the dark on a shaker at 300 rpm for 10 min to ensure complete cell lysis. After the reaction was completed, the luminescence was measured on a multi-mode microplate reader. The cell inhibition rate was determined according to the luminescence. Then, a cell viability curve was generated by Graphpad Prism 8.0, and the IC50 values were calculated. The compounds of the present disclosure were tested for activity by the method described above. Table 1. Cell inhibitory activity (IC50 values)

Another series addresses T1, GSPT1 protein (Homo sapiens, UniProt P15170+Q96SW2).
T1 construct: An HiBiT protein tag was added to the N-terminus of the endogenous GSPT1 protein of HEK293T cells by CRISPR gene editing technology; endogenous in cells; host or cells: HEK293T (CRISPR knock-in HiBiT-GSPT1 cell strain)
Nature of the series: GSPT1 protein degradation, Nano-Glo HiBiT assay in HiBiT-GSPT1 HEK293T cells. The series is classed as cell-based. The note with it: 24 h. On the procedure:
This experiment was performed to evaluate the targeting property of the compounds. An HiBiT protein tag was added to the N-terminus of the endogenous GSPT1 protein of HEK293T cells by CRISPR gene editing technology, so as to construct a HiBiT-GSPT1 HEK293T stably transfected cell strain. HiBiT-GSPT1 HEK293T cells were cultured in DMEM containing 10% FBS and 1% PenStrep. When the cell confluency reached 80%-90%, the cells were digested with trypsin, pipetted into single cells, and resuspended in a corresponding culture medium to form a cell suspension. The cells were counted using Cell Countess (NanoEnTek, #Cat. EVE-MC2), and the cell viability was determined by trypan blue exclusion to ensure that the cell viability was above 90%. The cells were plated in a 384-well plate (Corning, #Cat. 3764) at 10,000 cells/40 µL of cell suspension per well, and cultured in an incubator at 37 °C with 5% CO2 overnight. The next day, the test compounds were added to the 384-well plate under conditions of 30 µM highest concentration, 5-fold serial dilution, and 1‰ DMSO. The plate was incubated in the incubator at 37 °C with 5% CO2 for another 24 h. Before measurement, the Nano-Glo HiBiT reagent was equilibrated to room temperature, the LgBiT protein was diluted with the Nano-Glo HiBiT Lytic buffer according to a dilution ratio of 1:100, and the Nano-Glo@HiBiT Lytic substrate was diluted to an appropriate volume according to a ratio of 1:50. After the cell culture plate was equilibrated at room temperature for 10 min, 40 µL of Nano-Glo HiBiT Lytic assay reagent was added to each well. The plate was shaken on a microplate shaker at a rotation speed of 300 rpm for 3 min in the dark. After the reaction was completed, the luminescencevalues were read on BMG PHERASTAR FS (BMG LRBTECH, Cat. No.: PHERAstar FSX), and the DC50 values were calculated using GraphPad Prism 8.0. Table 2. GSPT1 protein degradation
A general note: With HiBiT, luminescence reflects the tagged protein that the partner subunit can reach.

In a further series the test system is HL-60. In words: In vitro anti-tumor activity of molecular glue compounds, CellTiter-Lumi cell viability assay. The series is classed as cell-based. The note with it: Homo sapiens; HL-60 cells, 96 h incubation; read-out: Cell inhibitory activity (IC50 values) HL-60. On the procedure: as §1
A further series deals with NCI-H929. The description is as above. The series is classed as cell-based. As to conditions: Homo sapiens; NCI-H929 cells, 96 h incubation; read-out: Cell inhibitory activity (IC50 values) NCI-H929. On the procedure:
as §1

Another series has as its system Romas. Described as above. The note with it: Romas cells, 96 h incubation; read-out: Cell inhibitory activity (IC50 values) Romas. The series is classed as cell-based. As for the experimental part: as §1
The subject of another series is NCI-H82. The series is described as above. The note with it: Homo sapiens; NCI-H82 cells, 96 h incubation; read-out: Cell inhibitory activity (IC50 values) NCI-H82. The series is classed as cell-based. As for the experimental part: as §1
Series [1] in a line: Metabolic stability in liver microsomes. As to conditions: Rat liver microsomes, after 60 min of incubation. In general terms: Liver microsomes are a subcellular fraction often used to study metabolism.
Experimental: (§3) The final concentration of the substrate in the incubation system was 1 µM, and the incubation time was 60 min. Sampling was performed at 0 min, 5 min, 15 min, 30 min, and 60 min. The reaction was stopped with glacial acetonitrile containing an internal standard (testosterone-d3 at a concentration of 10 ng/mL). Verapamil was used as a positive control. […] The natural logarithm of the remaining percentage was subjected to linear fitting with time to determine the elimination rate constant (k).
A short description of series [2]: Metabolic stability in liver microsomes. As to conditions: Human liver microsomes, after 60 min of incubation.
Experimental: as §3
A short description of series [3]: Metabolic stability in liver microsomes. As to conditions: Monkey liver microsomes, after 60 min of incubation.
Experimental: as §3
Series [4] can be described thus: in vitro. As to conditions: human, microsomes.
Experimental: as §3
Series [5] in a line: Metabolic stability in liver microsomes. The note with it: Dog liver microsomes, after 60 min of incubation.
Experimental: as §3
Series [6] can be described thus: in vitro. As to conditions: rat, microsomes.
Experimental: as §3
A short description of series [7]: in vitro. As to conditions: monkey, microsomes.
Experimental: as §3
A short description of series [8]: in vitro. As to conditions: dog, microsomes.
Experimental: as §3
The nature of series [9]: Metabolic stability in liver microsomes. As to conditions: Mouse liver microsomes, after 60 min of incubation.
Experimental: as §3
Series [10] in a line: in vitro. As to conditions: mouse, microsomes.
Experimental: as §3
The subject of the next series is AsPc-1. In words: Activity in cell strains with high expression of efflux pump proteins, cell viability assay. The series is classed as cell-based. As to conditions: Homo sapiens, ASPC1, AsPc-1 cells, 96 h. As for the experimental part: (§2) Three types of cells used for evaluating the activity of the compounds of the present disclosure against a cell strain with high expression of efflux pump proteins were all purchased from Nanjing Cobioer Biosciences Co., Ltd., and all the cells were derived from ATCC (American Type Culture Collection). Various tumor cells were cultured until the cell confluency reached 80%-90%, with cell viability above 90% as determined by trypan blue exclusion. Then, the cells were plated. Specifically, after cell density optimization, 75 µL of each of three cell suspensions of SNU-5, HCT-15, and AsPc-1 cells (3000 cells/well) was inoculated into a BeyoGold™ ultra-low attachment black clear-bottom 96-well plate (Cat. No.: FULA965-24pcs), and the plate was incubated overnight in a cell incubator at 37 °C with carbon dioxide. The next day, after the cells adhered to the wall, 75 µL of the compounds diluted with the corresponding culture media were added. Specifically, the compounds were serially diluted at a 5-fold gradient starting from the highest concentration of 1 µM, with a final DMSO concentration of 1‰, and the test compounds were then added to the cell culture plate. The plate was incubated in an incubator at 37 °C with 5% carbon dioxide for 96 h. Before measurement, the CellTiter-Lumi™ luminescent cell viability assay reagent was equilibrated to room temperature in the dark. Then, 50 µL of the CellTiter-Lumi™ (Cat. No.: C0065XL) cell viability assay reagent was added to each well of the 96-well plate. The plate was shaken in the dark on a shaker at 300 rpm for 10 min to ensure complete cell lysis. After the reaction was completed, the chemiluminescence intensity was measured on a multi-mode microplate reader. The cell viability inhibition rate was determined according to the chemiluminescence intensity. Then, a cell viability curve was generated by Graphpad Prism 8.0, and the IC50 values were calculated. Table 3. Activity of the compounds of the present disclosure in cell strains with high expression of efflux pump proteins (IC50 value)

The next series relates to HCT-15. Described as above. The series is classed as cell-based. As to conditions: Homo sapiens, HCT-15 cells, 96 h. On the procedure: as §2
A further series deals with SNU-5. The description is as above. The series is classed as cell-based. As to conditions: Homo sapiens, SNU-5 cells, 96 h. On the procedure:
as §2

[11] abbreviates: 96 h incubation, read-out: Cell inhibitory activity (IC50 values) SK-BR-3.

Structures are written as SMILES. Like-named read-outs stand apart in the source and are kept apart here.

T1 sequence (P15170 whole entry): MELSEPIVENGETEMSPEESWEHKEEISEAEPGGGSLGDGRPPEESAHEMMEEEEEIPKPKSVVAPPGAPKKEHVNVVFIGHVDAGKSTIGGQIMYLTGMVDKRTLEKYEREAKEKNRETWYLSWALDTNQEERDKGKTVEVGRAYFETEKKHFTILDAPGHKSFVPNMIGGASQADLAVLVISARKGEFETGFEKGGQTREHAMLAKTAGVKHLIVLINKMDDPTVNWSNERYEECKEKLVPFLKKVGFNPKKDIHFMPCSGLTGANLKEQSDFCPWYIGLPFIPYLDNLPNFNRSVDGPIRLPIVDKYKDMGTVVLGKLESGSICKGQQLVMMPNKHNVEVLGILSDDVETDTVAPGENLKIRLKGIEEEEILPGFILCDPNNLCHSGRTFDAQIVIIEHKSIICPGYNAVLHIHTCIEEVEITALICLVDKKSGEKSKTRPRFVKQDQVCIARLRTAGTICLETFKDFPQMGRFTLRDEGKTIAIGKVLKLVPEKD
T1 sequence (Q96SW2 whole entry): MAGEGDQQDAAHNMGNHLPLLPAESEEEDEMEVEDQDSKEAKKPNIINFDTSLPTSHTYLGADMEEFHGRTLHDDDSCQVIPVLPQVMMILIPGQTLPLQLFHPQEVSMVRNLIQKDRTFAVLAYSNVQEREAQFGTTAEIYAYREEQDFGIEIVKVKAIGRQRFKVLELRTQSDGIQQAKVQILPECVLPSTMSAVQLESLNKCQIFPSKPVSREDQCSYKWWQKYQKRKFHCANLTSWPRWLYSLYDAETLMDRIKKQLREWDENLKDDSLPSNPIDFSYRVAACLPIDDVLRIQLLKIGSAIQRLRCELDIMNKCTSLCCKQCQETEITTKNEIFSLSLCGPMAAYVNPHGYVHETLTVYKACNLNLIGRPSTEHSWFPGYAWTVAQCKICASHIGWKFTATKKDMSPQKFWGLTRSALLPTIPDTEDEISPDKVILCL
T1 sequence (Q16531 whole entry partner): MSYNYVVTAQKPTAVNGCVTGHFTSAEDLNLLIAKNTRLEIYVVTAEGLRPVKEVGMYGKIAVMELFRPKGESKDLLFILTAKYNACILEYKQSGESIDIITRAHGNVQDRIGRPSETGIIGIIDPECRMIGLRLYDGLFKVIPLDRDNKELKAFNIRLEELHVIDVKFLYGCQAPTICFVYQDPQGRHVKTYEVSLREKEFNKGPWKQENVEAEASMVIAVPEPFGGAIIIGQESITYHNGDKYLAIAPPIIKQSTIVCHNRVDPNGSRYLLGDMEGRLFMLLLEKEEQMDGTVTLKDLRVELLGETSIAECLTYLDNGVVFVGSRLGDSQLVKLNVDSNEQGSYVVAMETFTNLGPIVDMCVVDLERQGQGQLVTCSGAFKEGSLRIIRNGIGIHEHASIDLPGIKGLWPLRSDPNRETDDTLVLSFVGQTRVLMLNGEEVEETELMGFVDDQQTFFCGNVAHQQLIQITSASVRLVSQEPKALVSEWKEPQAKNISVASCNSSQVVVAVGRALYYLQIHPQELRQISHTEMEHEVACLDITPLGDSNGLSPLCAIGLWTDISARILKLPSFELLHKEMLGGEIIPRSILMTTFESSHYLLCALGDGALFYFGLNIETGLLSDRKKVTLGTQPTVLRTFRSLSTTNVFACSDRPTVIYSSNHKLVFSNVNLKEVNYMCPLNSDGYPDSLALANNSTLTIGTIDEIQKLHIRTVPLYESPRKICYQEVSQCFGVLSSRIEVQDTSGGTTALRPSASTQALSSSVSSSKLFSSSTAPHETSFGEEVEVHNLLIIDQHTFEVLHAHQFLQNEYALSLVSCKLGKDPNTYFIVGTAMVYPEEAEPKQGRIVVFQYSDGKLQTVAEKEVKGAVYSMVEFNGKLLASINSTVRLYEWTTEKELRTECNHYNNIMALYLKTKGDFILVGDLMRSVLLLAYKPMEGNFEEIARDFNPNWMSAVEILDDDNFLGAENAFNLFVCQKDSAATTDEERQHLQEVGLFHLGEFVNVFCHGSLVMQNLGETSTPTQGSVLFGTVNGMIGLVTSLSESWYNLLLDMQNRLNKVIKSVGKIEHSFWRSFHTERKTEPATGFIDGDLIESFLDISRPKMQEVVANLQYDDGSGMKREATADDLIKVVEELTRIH

A word on the IC50: it is the midpoint of a concentration-inhibition curve. By DC50 is commonly meant the midpoint of the concentration-degradation curve. In the case of `CC(C)(C)OC(=O)N1CCCC(OCCCc2ccc(NC(=O)NCc3ccc4c(c3)CN(C3CCC(=O)NC3=O)C4=O)cc2Cl)C1` (stereo not shown) [Compound A19], the concentration for half-maximal inhibition (IC50) with SK-BR-3 (read-out: SK-BR-3 IC50) stood at 1.22 nM. At GSPT1 protein, the DC50 was found to be 16 nM.

As a reminder, the CLint scaled is the rate of metabolic loss divided by the concentration. Usually half-life stands for the time in which the quantity being followed falls by half. Take `O=C1CCC(N2Cc3cc(CNC(=O)Nc4ccc(CCCOC5CCNCC5)c(Cl)c4)ccc3C2=O)C(=O)N1` (stereo not shown) [Compound B61]: the IC50 with HL-60 was less than 10 nM; in the series on NCI-H929 it was less than 10 nM; in the series on Romas it was less than 10 nM; in the series on NCI-H82, 10 to 50 nM; with SK-BR-3 (setting [11]), less than 10 nM. Besides, the “Parent drug remaining %” value in series [1] is on record as 71.0%; in series [2], 83.4%; in [3] it was 79.4%; in [5] it was 86.4%; in series [9], 79.8%. Further, the CLint scaled at 1 µM in the series “in vitro [4]” was found to be 7.03 mL/min/kg; in the series “in vitro [6]”, 19.8 mL/min/kg; in “in vitro [7]” it was 13.7 mL/min/kg; in the series “in vitro [8]”, 11.8 mL/min/kg; in the series “in vitro [10]”, 32.2 mL/min/kg. Further, the CLint scaled at 1 h, 1 µM in the series “in vitro [4]” is 5.27 mL/min/kg; in “in vitro [6]”, 14.6 mL/min/kg; in “in vitro [7]” it was 10.5 mL/min/kg; in the series “in vitro [8]”, 8.55 mL/min/kg; in the series “in vitro [10]” it was 23.7 mL/min/kg. Also, the half-life at 1 µM in “in vitro [4]” stood at 4.12 h; in “in vitro [6]”, 2.08 h; in the series “in vitro [7]”, 2.47 h; in the series “in vitro [8]”, 4.88 h; in “in vitro [10]”, 2.9 h.

For `O=C1CCC(N2Cc3cc(CNC(=O)Nc4ccc(CCCOC5CNC5)c(Cl)c4)ccc3C2=O)C(=O)N1` (stereo not shown) [Compound B63], the IC50 with HL-60 was less than 10 nM; in the series on NCI-H929 it was less than 10 nM; in the series on Romas, 10 to 50 nM; in the series on NCI-H82 it was 10 to 50 nM; in the series on SK-BR-3 (setting [11]) it was less than 10 nM. In addition, the “Parent drug remaining %” value is 94.9% in series [1]; 98.8% in series [2]; 101% in series [3]; 103% in series [5]; 102% in [9]. For the same molecule, the CLint scaled at 1 µM worked out at 0.19 mL/min/kg in “in vitro [4]”, 1.39 mL/min/kg in “in vitro [6]” and 0.257 mL/min/kg in “in vitro [7]”. In addition, the values for the CLint scaled at 1 h, 1 µM in “in vitro [4]”, in “in vitro [6]” and in the series “in vitro [7]” were 0.189 mL/min/kg, 1.35 mL/min/kg and 0.255 mL/min/kg, respectively. The half-life at 1 µM in the series “in vitro [4]” was 152 h; in the series “in vitro [6]”, 29.8 h; in the series “in vitro [7]” it was 132 h.

In the case of `O=C1CCC(N2Cc3cc(CNC(=O)Nc4ccc(CCCOC5CCNCC56CC6)c(Cl)c4)ccc3C2=O)C(=O)N1` (stereo not shown) [Compound B72], the IC50 with HL-60 is less than 10 nM; with NCI-H929, less than 10 nM; in the series on Romas, 10 to 50 nM; in the series with NCI-H82, 10 to 50 nM; in the series on SK-BR-3 (setting [11]) it was 10 to 50 nM.

Turning to `CNCCOCCc1ccc(NC(=O)NCc2ccc3c(c2)CN(C2CCC(=O)NC2=O)C3=O)cc1Cl` (stereo not shown) [Smol006, reference compound], the IC50 in the series on HL-60 is 10 to 50 nM; in the series on NCI-H929 it was 50 to 100 nM; in the series on Romas, more than 100 nM; in the series on NCI-H82, 50 to 100 nM; in the series on SK-BR-3 (setting [11]), more than 100 nM; in the series with SK-BR-3 (read-out: SK-BR-3 IC50) it was 32.3 nM. Besides, the IC50 with AsPc-1 is 50 to 200 nM; with HCT-15, more than 1000 nM; with SNU-5 it was more than 1000 nM. Moreover, half-maximal degradation at GSPT1 protein (DC50) was put at 274 nM.

These data come from patent EP4667463A1, “DOMIDE MOLECULAR GLUE DERIVATIVE AND USE THEREOF” (CSPC Megalith Biopharmaceutical Co., Ltd., priority 2023, dated 2024).
